Molecular target: T1, AXL (Homo sapiens, UniProt P30530)
T1 construct: endogenous in cells; host or cells: A-172 glioblastoma cells (ATCC #CRL-1620)
T1 sequence (P30530 26-894): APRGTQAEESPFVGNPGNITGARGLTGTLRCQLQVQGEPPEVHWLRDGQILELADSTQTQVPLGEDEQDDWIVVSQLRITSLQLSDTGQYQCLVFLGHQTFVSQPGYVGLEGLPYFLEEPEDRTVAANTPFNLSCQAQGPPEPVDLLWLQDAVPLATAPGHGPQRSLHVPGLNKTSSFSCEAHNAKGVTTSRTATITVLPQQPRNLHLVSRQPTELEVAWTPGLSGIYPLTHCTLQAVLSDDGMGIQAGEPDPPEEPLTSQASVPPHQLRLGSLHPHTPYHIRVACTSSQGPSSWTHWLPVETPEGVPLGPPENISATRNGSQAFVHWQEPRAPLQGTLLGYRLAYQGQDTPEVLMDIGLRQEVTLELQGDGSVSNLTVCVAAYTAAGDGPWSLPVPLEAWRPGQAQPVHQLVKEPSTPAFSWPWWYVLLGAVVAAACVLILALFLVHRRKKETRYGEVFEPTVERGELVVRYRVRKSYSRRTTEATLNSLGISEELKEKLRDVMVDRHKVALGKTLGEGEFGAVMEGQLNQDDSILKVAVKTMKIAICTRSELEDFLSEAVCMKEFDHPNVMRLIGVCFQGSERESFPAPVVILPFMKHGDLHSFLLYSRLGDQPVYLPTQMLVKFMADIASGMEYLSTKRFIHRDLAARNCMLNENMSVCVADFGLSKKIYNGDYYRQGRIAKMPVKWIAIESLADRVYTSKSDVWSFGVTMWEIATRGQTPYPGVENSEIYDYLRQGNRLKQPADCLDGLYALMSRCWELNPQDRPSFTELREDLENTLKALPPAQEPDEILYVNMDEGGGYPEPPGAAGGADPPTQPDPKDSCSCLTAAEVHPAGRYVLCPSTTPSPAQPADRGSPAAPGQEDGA
Experiment: AXL autophosphorylation ELISA in A-172 cells
Type: cell-based
Settings: cellular activity, Gas6-stimulated, phospho-AXL ELISA
Method in brief: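 Serum-starved (24 h) A-172 glioblastoma cells got an 8-point compound series (0.3% DMSO) for 1 h, then 1 μg/mL human Gas6 for 15 min. Lysate phospho-AXL quantified by ELISA against phospho-AXL standard, normalized to DMSO and reference-inhibitor controls; IC50 by 4-parameter logistic fit.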

| Compound | IC50 |
| --- | --- |
| O=C(Nc1ccc(F)cc1)C1(C(=O)Nc2ccc(Oc3ccnc4cc(-c5ccccc5)ccc34)cc2)CC1 [Compound 55, 1-N′-(4-Fluorophenyl)-1-N-[4-(7-phenylquinolin-4-yl)oxyphenyl]cyclopropane-1,1-dicarboxamide] | 100 to 300 nM |
| Cc1cn(-c2ccc3c(Oc4ccc(NC(=O)C5(C(=O)Nc6ccc(F)cc6)CC5)cc4)ccnc3c2)cn1 [Compound 87, 1-N′-(4-Fluorophenyl)-1-N-[4-[7-(4-methylimidazol-1-yl)quinolin-4-yl]oxyphenyl]cyclopropane-1,1-dicarboxamide] | ≤ 10 nM |
| Nc1n[nH]cc1-c1ccc2c(Oc3ccc(NC(=O)C4(C(=O)Nc5ccc(F)cc5)CC4)cc3)ccnc2c1 [Compound 90, 1-N-[4-[7-(3-Amino-1H-pyrazol-4-yl)quinolin-4-yl]oxyphenyl]-1-N′-(4-fluorophenyl)cyclopropane-1,1-dicarboxamide] | 10 to 100 nM |
| Cc1ccn(-c2ccc3c(Oc4ccc(NC(=O)C5(C(=O)Nc6ccc(F)cc6)CC5)cc4)ccnc3c2)n1 [Compound 91, 1-N′-(4-Fluorophenyl)-1-N-[4-[7-(3-methylpyrazol-1-yl)quinolin-4-yl]oxyphenyl]cyclopropane-1,1-dicarboxamide] | 100 to 300 nM |
| CC(=O)N1CCC(c2ccc3c(Oc4ccc(NC(=O)C5(C(=O)Nc6ccc(F)cc6)CC5)cc4)ccnc3c2)C1 (stereo not drawn) [Compound 92, 1-N-[4-[7-(1-Acetylpyrrolidin-3-yl)quinolin-4-yl]oxyphenyl]-1-N′-(4-fluorophenyl)cyclopropane-1,1-dicarboxamide] | 10 to 100 nM |
| CS(=O)(=O)N1CCC(c2ccc3c(Oc4ccc(NC(=O)C5(C(=O)Nc6ccc(F)cc6)CC5)cc4)ccnc3c2)C1 (stereo not drawn) [Compound 93, 1-N′-(4-Fluorophenyl)-1-N-[4-[7-(1-methylsulfonylpyrrolidin-3-yl)quinolin-4-yl]oxyphenyl]cyclopropane-1,1-dicarboxamide] | 100 to 300 nM |
| O=C(Nc1ccc(F)cc1)C1(C(=O)Nc2ccc(Oc3ccnc4cc(-c5cnn(CF)c5)ccc34)cc2)CC1 [Compound 94, 1-N-[4-[7-[1-(Fluoromethyl)pyrazol-4-yl]quinolin-4-yl]oxyphenyl]-1-N′-(4-fluorophenyl)cyclopropane-1,1-dicarboxamide] | ≤ 10 nM |
| O=C(Nc1ccc(F)cc1)C1(C(=O)Nc2ccc(Oc3ccnc4cc(C5=CCOC5)ccc34)cc2)CC1 [Compound 95, 1-N-[4-[7-(2,5-Dihydrofuran-3-yl)quinolin-4-yl]oxyphenyl]-1-N′-(4-fluorophenyl)cyclopropane-1,1-dicarboxamide] | 10 to 100 nM |
| Cc1cnn(-c2ccc3c(Oc4ccc(NC(=O)C5(C(=O)Nc6ccc(F)cc6)CC5)cc4)ccnc3c2)c1 [Compound 96, 1-N′-(4-Fluorophenyl)-1-N-[4-[7-(4-methylpyrazol-1-yl)quinolin-4-yl]oxyphenyl]cyclopropane-1,1-dicarboxamide] | 100 to 300 nM |
| Nc1cc(-c2ccc3c(Oc4ccc(NC(=O)C5(C(=O)Nc6ccc(F)cc6)CC5)cc4)ccnc3c2)ccn1 [Compound 97, 1-N-[4-[7-(2-Aminopyridin-4-yl)quinolin-4-yl]oxyphenyl]-1-N′-(4-fluorophenyl)cyclopropane-1,1-dicarboxamide] | 10 to 100 nM |
| O=C(Nc1ccc(F)cc1)C1(C(=O)Nc2ccc(Oc3ccnc4cc(-c5ccn(C6CC6)n5)ccc34)cc2)CC1 [Compound 98, 1-N-[4-[7-(1-Cyclopropylpyrazol-3-yl)quinolin-4-yl]oxyphenyl]-1-N′-(4-fluorophenyl)cyclopropane-1,1-dicarboxamide] | 10 to 100 nM |

Next, values leading:

| IC50 | Compound |
| --- | --- |
| 10 to 100 nM | Cc1cc(-c2ccc3c(Oc4ccc(NC(=O)C5(C(=O)Nc6ccc(F)cc6)CC5)cc4)ccnc3c2)n[nH]1 [Compound 99, 1-N′-(4-Fluorophenyl)-1-N-[4-[7-(5-methyl-1H-pyrazol-3-yl)quinolin-4-yl]oxyphenyl]cyclopropane-1,1-dicarboxamide] |
| 10 to 100 nM | Cc1cc(-c2ccc3c(Oc4ccc(NC(=O)C5(C(=O)Nc6ccc(F)cc6)CC5)cc4)ccnc3c2)nn1C [Compound 101, 1-N-[4-[7-(1,5-Dimethylpyrazol-3-yl)quinolin-4-yl]oxyphenyl]-1-N′-(4-fluorophenyl)cyclopropane-1,1-dicarboxamide] |
| 10 to 100 nM | O=C(Nc1ccc(F)cc1)C1(C(=O)Nc2ccc(Oc3ccnc4cc(-c5ccn(CF)n5)ccc34)cc2)CC1 [Compound 102, 1-N-[4-[7-[1-(Fluoromethyl)pyrazol-3-yl]quinolin-4-yl]oxyphenyl]-1-N′-(4-fluorophenyl)cyclopropane-1,1-dicarboxamide] |
| 100 to 300 nM | O=C(Nc1ccc(F)cc1)C1(C(=O)Nc2ccc(Oc3ccnc4cc(-c5cc6ccccn6n5)ccc34)cc2)CC1 [Compound 104, 1-N′-(4-Fluorophenyl)-1-N-[4-(7-pyrazolo[1,5-a]pyridin-2-ylquinolin-4-yl)oxyphenyl]cyclopropane-1,1-dicarboxamide] |
| 10 to 100 nM | Cc1cc2c(Oc3cc(F)c(NC(=O)C4(C(=O)Nc5ccc(F)cc5)CC4)cc3F)ccnc2cc1-c1cnn(C)c1 [Compound 105, 1-N′-[2,5-Difluoro-4-[6-methyl-7-(1-methylpyrazol-4-yl)quinolin-4-yl]oxyphenyl]-1-N-(4-fluorophenyl)cyclopropane-1,1-dicarboxamide] |
| 10 to 100 nM | Cc1cc2c(Oc3ccc(NC(=O)C4(C(=O)Nc5ccc(F)cc5)CC4)cc3)ccnc2cc1-c1cc[nH]n1 [Compound 107, 1-N′-(4-Fluorophenyl)-1-N-[4-[6-methyl-7-(1H-pyrazol-3-yl)quinolin-4-yl]oxyphenyl]cyclopropane-1,1-dicarboxamide] |
| 10 to 100 nM | Cc1cc2c(Oc3ccc(NC(=O)C4(C(=O)Nc5ccc(F)cc5)CC4)cc3)ccnc2cc1-c1ccn(C)n1 [Compound 108, 1-N′-(4-Fluorophenyl)-1-N-[4-[6-methyl-7-(1-methylpyrazol-3-yl)quinolin-4-yl]oxyphenyl]cyclopropane-1,1-dicarboxamide] |
